Measurements from patent US9169217B2, “Arylalkyl esters of 4-amino-6-(substituted phenyl)-picolinates and 6-amino-2-(substituted phenyl)-pyrimidinecarboxylates and their use as selective herbicides for crops” (Dow AgroSciences LLC, priority 2011, dated 2015).

Key:
Type in all cases: in vivo
[1] = system: Polygonum convolvulus (Buckwheat, wild); assay: Postemergence herbicidal activity in cereal crops (Example 14); conditions: wheat cropping systems, postemergence spray, 35 g ae/ha, 21 DAA
Protocol: (§1) Seeds of the desired test plant species were planted in Sun Gro Metro-Mix® 360 planting mixture, which typically has a pH of 6.0 to 6.8 and an organic matter content of about 30 percent, in plastic pots with a surface area of 84.6 cm^2. When required to ensure good germination and healthy plants, a fungicide treatment and/or other chemical or physical treatment was applied. The plants were grown for 7-36 d in a greenhouse with an approximate 14 h photoperiod which was maintained at about 18° C. during the day and 17° C. during the night. Nutrients and water were added on a regular basis and supplemental lighting was provided with overhead metal halide 1000-Watt lamps as necessary. The plants were employed for testing when they reached the second or third true leaf stage.
(§2) Treatments consisted of esters of compounds 33, 34, 39, 40 and 42 and B, F, G and H. Compound B is methyl 4-amino-3-chloro-6-(4-cyclopropylphenyl)-5-fluoropicolinate; compound F is methyl 6-amino-2-(4-chloro-2-fluoro-3-methoxyphenyl)-5-methoxypyrimidine-4-carboxylate; compound G is methyl 4-amino-3-chloro-6-(4-chloro-2-fluoro-3-methoxyphenyl)picolinate; and compound H is methyl 4-amino-3-chloro-6-(4-chloro-2-fluoro-3-(1-fluoroethyl)phenyl)-5-fluoropicolinate. A weighed amount, determined by the highest rate to be tested, of each test compound was placed in a 25 mL glass vial and was dissolved in 8 mL of a 97:3 v/v mixture of acetone and DMSO to obtain concentrated stock solutions. […] The concentrated stock solutions obtained were diluted with 16 mL of an aqueous mixture containing acetone, water, isopropyl alcohol, DMSO, Agri-dex crop oil concentrate, and Triton® X-77 surfactant in a 64.7:26.0:6.7:2.0:0.7:0.01 v/v ratio to obtain spray solutions containing the highest application rates. Additional application rates were obtained by serial dilution of 12 mL of the high rate solution into a solution containing 4 mL of a 97:3 v/v mixture of acetone and DMSO and 8 mL of an aqueous mixture containing acetone, water, isopropyl alcohol, DMSO, Agri-dex crop oil concentrate, and Triton® X-77 surfactant in a 48.5:39.0:10.0:1.5:1.0:0.02 v/v ratio to obtain ½×, ¼×, ⅛× and 1/16× rates of the high rate. Compound requirements are based upon a 12 mL application volume at a rate of 187 L/ha. Formulated compounds were applied to the plant material with an overhead Mandel track sprayer equipped with 8002E nozzles calibrated to deliver 187 L/ha over an application area of 0.503 m^2 at a spray height of 18 inches (43 cm) above average plant canopy height. Control plants were sprayed in the same manner with the blank.
(§3) The treated plants and control plants were placed in a greenhouse as described above and watered by sub-irrigation to prevent wash-off of the test compounds. After 20-22 d, the condition of the test plants as compared with that of the untreated plants was determined visually and scored on a scale of 0 to 100 percent where 0 corresponds to no injury and 100 corresponds to complete kill.

[2] = system: Brassica sinapis (Mustard, wild); assay: as above; conditions: wheat cropping systems, postemergence spray, 35 g ae/ha, 21 DAA
Protocol: as §1, §2, §3

[3] = system: Fimbristylis miliacea (L.) VAHL (globe fringerush); assay: In-water applied herbicidal activity in transplanted paddy rice (Example 17); conditions: for GR50 / GR80 / GR90: FIMMI, in-water applied, probit analysis; for GR50: 50% growth reduction; for GR80: 80% growth reduction; for GR90: 90% growth reduction; for Visual Injury (%) FIMMI: rice cropping systems, in-water applied (paddy), 35 g ae/ha, 21 DAA, may represent multiple trials
Outline: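 Ester forms of test compounds, in acetone diluted with aqueous Agri-dex (final 1.25% v/v crop oil concentrate), were injected into the flood water of paddy pots holding weeds or rice at the 2nd–3rd leaf stage in mud (pH ~7.3–7.8). Visual injury versus untreated plants was scored 0–100% after 3 weeks in greenhouse (~29/26 °C). GR50/GR80 were derived by probit analysis.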

[4] = system: Matricaria chamomilla (Mayweed, wild); assay: Postemergence herbicidal activity in cereal crops (Example 14); conditions: wheat cropping systems, postemergence spray, 35 g ae/ha, 21 DAA
Protocol: as §1, §2, §3

| SMILES | Visual Injury (%) POLCO [1] [%] | Visual Injury (%) SINAR [2] [%] | GR50 [3] [g ae/ha] | GR80 [3] [g ae/ha] | GR90 [3] [g ae/ha] | Visual Injury (%) MATCH [4] [%] | Visual Injury (%) FIMMI [3] [%] |
| --- | --- | --- | --- | --- | --- | --- | --- |
| COC(=O)c1nc(-c2ccc(C3CC3)cc2)c(F)c(N)c1Cl [Compound B, methyl 4-amino-3-chloro-6-(4-cyclopropylphenyl)-5-fluoropicolinate] | 62 | 70 | – | – | – | – | – |
| COc1c(Cl)ccc(-c2nc(C(=O)OCc3ccccc3)c(Cl)c(N)c2F)c1F [Compound 1, benzyl 4-amino-3-chloro-6-(4-chloro-2-fluoro-3-methoxyphenyl)-5-fluoropicolinate] | – | – | <17.5 | <17.5 | <17.5 | – | – |
| Nc1c(F)c(-c2ccc(C3CC3)cc2)nc(C(=O)OCc2ccccc2)c1Cl [Compound 42, benzyl 4-amino-3-chloro-6-(4-cyclopropylphenyl)-5-fluoropicolinate] | 95 | 93 | – | – | – | – | – |
| COC(=O)c1nc(-c2ccc(Cl)c(OC)c2F)nc(N)c1OC [Compound F, methyl 6-amino-2-(4-chloro-2-fluoro-3-methoxyphenyl)-5-methoxypyrimidine-4-carboxylate, reference compound] | – | – | – | – | – | 10 | – |
| COC(=O)c1nc(-c2ccc(Cl)c(OC)c2F)c(F)c(N)c1Cl [E, methyl 4-amino-3-chloro-6-(4-chloro-2-fluoro-3-methoxyphenyl)-5-fluoropicolinate, reference compound] | – | – | 14.4 | 21.7 | 26.8 | – | – |
| COC(=O)c1nc(-c2ccc(Cl)c(OC)c2F)cc(N)c1Cl [Compound G, methyl 4-amino-3-chloro-6-(4-chloro-2-fluoro-3-methoxyphenyl)picolinate, reference compound] | 85 | 80 | – | – | – | 75 | 61 |
| COc1c(Cl)ccc(-c2cc(N)c(Cl)c(C(=O)OCc3ccccc3)n2)c1F [Compound 39] | 95 | 95 | – | – | – | 95 | 100 |
